{"source": "patent US4211772A", "about": "“Benzopyran glycoside acetals and ketals” (Laboratoires Sarget, priority 1977, dated 1980)", "key": {"[1]": {"assay": "Solubilities in water", "type": "physicochemical", "details": "water; read-out: Solubilities in water"}, "[2]": {"biological_target": "T1, Aldose Reductase (Bos taurus, UniProt P16116)", "T1 construct": "The enzyme is extracted from beef eye lenses; from tissue; host or cells: beef eye lenses", "assay": "Inhibition of aldose reductase in vitro (enzyme from beef eye lenses, glyceraldehyde substrate)", "type": "biochemical", "details": "in DMF solution, read-out: percentages of inhibition (aldose reductase)", "excerpt": "Inhibition of Aldose Reductase In Vitro\nThe reoxidation of NADPH coupled to the enzymatic reaction was followed spectrophotometrically at 340 nm."}, "[3]": {"test_system": "carragenin edema", "assay": "Anti-inflammatory activity: carragenin edema test", "type": "in vivo", "details": "for % inhibition of carragenin edema: borate buffer pH 7, 24 h; for inhibition in vivo at 35 mg/kg / inhibition in vivo at 40 mg/kg / inhibition in vivo at 75 mg/kg / inhibition in vivo at 100 mg/kg / inhibition in vivo at 200 mg/kg: Rattus norvegicus, ip", "method_in_brief": "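Male Wistar EOPS rats receive 0.1 ml of 5% carragenin suspension in physiological serum into the hind-paw metatarsal muscle, with test substance given i.p. in neutralized solution at the same time. Paw edema is measured by plethysmometry at several times after carragenin and reported as % inhibition against pH-matched physiological serum controls.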"}, "[4]": {"test_system": "capillary resistance", "assay": "Capillaroprotecting effects: capillary resistance", "type": "in vivo, male OFA EOPS rats", "protocol": "(§1) Capillaroprotecting effects\nThe capillary resistance was determined by a variant of the method of Charlier et al, Arch. Inter. Physiol."}, "[5]": {"test_system": "capillary permeability", "assay": "Capillaroprotecting effects: capillary permeability", "type": "in vivo, conventional male Wistar rats", "protocol": "as §1\nThe capillary permeability was determined by the method of Charlier et al, Arch. Inter. Physiol."}}, "note": "Read-outs that look alike come from different tables or passages of the source.", "data": [{"smiles": "C[C@@H]1O[C@@H](OC[C@H]2O[C@@H](Oc3c(-c4ccc(O)c(O)c4)oc4cc(O)cc(O)c4c3=O)[C@H](O)[C@@H](O)[C@@H]2O)[C@@H]2OC3(CCCCC3)O[C@@H]2[C@H]1O", "note": "[No. 6, 3-O-(2,3-O,O-cyclohexylidene-6-α-L-rhamnosyl-β-D-glucosyl)-quercitin]", "values": [{"measurement": "solubility", "setting": "[1]", "value": "< 100", "unit": "µg/mL"}, {"measurement": "inhibition at 100 µM", "setting": "[2]; 10^-4 mole/l", "value": 93, "unit": "%"}, {"measurement": "inhibition at 10 µM", "setting": "[2]; 10^-5 mole/l", "value": 66, "unit": "%"}, {"measurement": "inhibition at 1 µM", "setting": "[2]; 10^-6 mole/l", "value": 10, "unit": "%"}, {"measurement": "% inhibition of carragenin edema", "setting": "[3]; 35 mg/kg i.p.", "value": 27, "unit": "%"}, {"measurement": "% inhibition of carragenin edema", "setting": "[3]; 75 mg/kg i.p.", "value": 21, "unit": "%"}, {"measurement": "% inhibition of carragenin edema", "setting": "[3]; 100 mg/kg i.p.", "value": 37, "unit": "%"}, {"measurement": "% inhibition of carragenin edema", "setting": "[3]; 200 mg/kg i.p.", "value": 0, "unit": "%"}, {"measurement": "inhibition in vivo at 35 mg/kg", "setting": "[3]; 1 h, pH 7, read-out: % inhibition of carragenin edema, 35 mg/kg i.p., borate buffer pH 7, 1 h", "value": 32, "unit": "%"}, {"measurement": "inhibition in vivo at 35 mg/kg", "setting": "[3]; 1 h, pH 7, read-out: % inhibition of carragenin edema, 35 mg/kg i.p., borate buffer pH 7, 1 h 1/2", "value": 23, "unit": "%"}, {"measurement": "inhibition in vivo at 40 mg/kg", "setting": "[3]; 1 h, pH 7, read-out: % inhibition of carragenin edema, 40 mg/kg i.p., borate buffer pH 7, 1 h", "value": 23, "unit": "%"}, {"measurement": "inhibition in vivo at 40 mg/kg", "setting": "[3]; 1 h, pH 7, read-out: % inhibition of carragenin edema, 40 mg/kg i.p., borate buffer pH 7, 1 h 1/2", "value": 11, "unit": "%"}, {"measurement": "inhibition in vivo at 75 mg/kg", "setting": "[3]; 1 h, pH 7, read-out: % inhibition of carragenin edema, 75 mg/kg i.p., borate buffer pH 7, 1 h", "value": 9, "unit": "%"}, {"measurement": "inhibition in vivo at 75 mg/kg", "setting": "[3]; 1 h, pH 7, read-out: % inhibition of carragenin edema, 75 mg/kg i.p., borate buffer pH 7, 1 h 1/2", "value": 3, "unit": "%"}, {"measurement": "inhibition in vivo at 100 mg/kg", "setting": "[3]; 1 h, pH 7, read-out: % inhibition of carragenin edema, 100 mg/kg i.p., borate buffer pH 7, 1 h", "value": 20, "unit": "%"}, {"measurement": "inhibition in vivo at 100 mg/kg", "setting": "[3]; 1 h, pH 7, read-out: % inhibition of carragenin edema, 100 mg/kg i.p., borate buffer pH 7, 1 h 1/2", "value": 9, "unit": "%"}, {"measurement": "inhibition in vivo at 200 mg/kg", "setting": "[3]; 1 h, pH 7, read-out: % inhibition of carragenin edema, 200 mg/kg i.p., borate buffer pH 7, 1 h", "value": 19, "unit": "%"}, {"measurement": "inhibition in vivo at 200 mg/kg", "setting": "[3]; 1 h, pH 7, read-out: % inhibition of carragenin edema, 200 mg/kg i.p., borate buffer pH 7, 1 h 1/2", "value": 2, "unit": "%"}, {"measurement": "inhibition in vivo at 35 mg/kg", "setting": "[3]; 2 h, pH 7, read-out: % inhibition of carragenin edema, 35 mg/kg i.p., borate buffer pH 7, 2 h", "value": 33, "unit": "%"}, {"measurement": "inhibition in vivo at 40 mg/kg", "setting": "[3]; 2 h, pH 7, read-out: % inhibition of carragenin edema, 40 mg/kg i.p., borate buffer pH 7, 2 h", "value": 7, "unit": "%"}, {"measurement": "inhibition in vivo at 75 mg/kg", "setting": "[3]; 2 h, pH 7, read-out: % inhibition of carragenin edema, 75 mg/kg i.p., borate buffer pH 7, 2 h", "value": 14, "unit": "%"}, {"measurement": "inhibition in vivo at 100 mg/kg", "setting": "[3]; 2 h, pH 7, read-out: % inhibition of carragenin edema, 100 mg/kg i.p., borate buffer pH 7, 2 h", "value": 1, "unit": "%"}, {"measurement": "inhibition in vivo at 200 mg/kg", "setting": "[3]; 2 h, pH 7, read-out: % inhibition of carragenin edema, 200 mg/kg i.p., borate buffer pH 7, 2 h", "value": 4, "unit": "%"}, {"measurement": "inhibition in vivo at 35 mg/kg", "setting": "[3]; 3 h, pH 7, read-out: % inhibition of carragenin edema, 35 mg/kg i.p., borate buffer pH 7, 3 h", "value": 9, "unit": "%"}, {"measurement": "inhibition in vivo at 40 mg/kg", "setting": "[3]; 3 h, pH 7, read-out: % inhibition of carragenin edema, 40 mg/kg i.p., borate buffer pH 7, 3 h", "value": 2, "unit": "%"}, {"measurement": "inhibition in vivo at 75 mg/kg", "setting": "[3]; 3 h, pH 7, read-out: % inhibition of carragenin edema, 75 mg/kg i.p., borate buffer pH 7, 3 h", "value": 17, "unit": "%"}, {"measurement": "inhibition in vivo at 100 mg/kg", "setting": "[3]; 3 h, pH 7, read-out: % inhibition of carragenin edema, 100 mg/kg i.p., borate buffer pH 7, 3 h", "value": 2, "unit": "%"}, {"measurement": "inhibition in vivo at 200 mg/kg", "setting": "[3]; 3 h, pH 7, read-out: % inhibition of carragenin edema, 200 mg/kg i.p., borate buffer pH 7, 3 h", "value": 0, "unit": "%"}, {"measurement": "inhibition in vivo at 35 mg/kg", "setting": "[3]; 4 h, pH 7, read-out: % inhibition of carragenin edema, 35 mg/kg i.p., borate buffer pH 7, 4 h", "value": 7, "unit": "%"}, {"measurement": "inhibition in vivo at 40 mg/kg", "setting": "[3]; 4 h, pH 7, read-out: % inhibition of carragenin edema, 40 mg/kg i.p., borate buffer pH 7, 4 h", "value": 5, "unit": "%"}, {"measurement": "inhibition in vivo at 75 mg/kg", "setting": "[3]; 4 h, pH 7, read-out: % inhibition of carragenin edema, 75 mg/kg i.p., borate buffer pH 7, 4 h", "value": 0, "unit": "%"}, {"measurement": "inhibition in vivo at 100 mg/kg", "setting": "[3]; 4 h, pH 7, read-out: % inhibition of carragenin edema, 100 mg/kg i.p., borate buffer pH 7, 4 h", "value": 10, "unit": "%"}, {"measurement": "inhibition in vivo at 200 mg/kg", "setting": "[3]; 4 h, pH 7, read-out: % inhibition of carragenin edema, 200 mg/kg i.p., borate buffer pH 7, 4 h", "value": 8, "unit": "%"}, {"measurement": "inhibition in vivo at 35 mg/kg", "setting": "[3]; 5 h, pH 7, read-out: % inhibition of carragenin edema, 35 mg/kg i.p., borate buffer pH 7, 5 h", "value": 10, "unit": "%"}, {"measurement": "inhibition in vivo at 40 mg/kg", "setting": "[3]; 5 h, pH 7, read-out: % inhibition of carragenin edema, 40 mg/kg i.p., borate buffer pH 7, 5 h", "value": 2, "unit": "%"}, {"measurement": "inhibition in vivo at 75 mg/kg", "setting": "[3]; 5 h, pH 7, read-out: % inhibition of carragenin edema, 75 mg/kg i.p., borate buffer pH 7, 5 h", "value": 7, "unit": "%"}, {"measurement": "inhibition in vivo at 100 mg/kg", "setting": "[3]; 5 h, pH 7, read-out: % inhibition of carragenin edema, 100 mg/kg i.p., borate buffer pH 7, 5 h", "value": 15, "unit": "%"}, {"measurement": "inhibition in vivo at 200 mg/kg", "setting": "[3]; 5 h, pH 7, read-out: % inhibition of carragenin edema, 200 mg/kg i.p., borate buffer pH 7, 5 h", "value": 9, "unit": "%"}, {"measurement": "inhibition in vivo at 35 mg/kg", "setting": "[3]; 6 h, pH 7, read-out: % inhibition of carragenin edema, 35 mg/kg i.p., borate buffer pH 7, 6 h", "value": 14, "unit": "%"}, {"measurement": "inhibition in vivo at 40 mg/kg", "setting": "[3]; 6 h, pH 7, read-out: % inhibition of carragenin edema, 40 mg/kg i.p., borate buffer pH 7, 6 h", "value": 0, "unit": "%"}, {"measurement": "inhibition in vivo at 75 mg/kg", "setting": "[3]; 6 h, pH 7, read-out: % inhibition of carragenin edema, 75 mg/kg i.p., borate buffer pH 7, 6 h", "value": 13, "unit": "%"}, {"measurement": "inhibition in vivo at 100 mg/kg", "setting": "[3]; 6 h, pH 7, read-out: % inhibition of carragenin edema, 100 mg/kg i.p., borate buffer pH 7, 6 h", "value": 5, "unit": "%"}, {"measurement": "inhibition in vivo at 200 mg/kg", "setting": "[3]; 6 h, pH 7, read-out: % inhibition of carragenin edema, 200 mg/kg i.p., borate buffer pH 7, 6 h", "value": 1, "unit": "%"}, {"measurement": "inhibition in vivo at 35 mg/kg", "setting": "[3]; read-out: % inhibition of carragenin edema, 35 mg/kg i.p., borate buffer pH 7, 1/2 h", "value": 26, "unit": "%"}, {"measurement": "inhibition in vivo at 40 mg/kg", "setting": "[3]; read-out: % inhibition of carragenin edema, 40 mg/kg i.p., borate buffer pH 7, 1/2 h", "value": 28, "unit": "%"}, {"measurement": "inhibition in vivo at 75 mg/kg", "setting": "[3]; read-out: % inhibition of carragenin edema, 75 mg/kg i.p., borate buffer pH 7, 1/2 h", "value": 29, "unit": "%"}, {"measurement": "inhibition in vivo at 100 mg/kg", "setting": "[3]; read-out: % inhibition of carragenin edema, 100 mg/kg i.p., borate buffer pH 7, 1/2 h", "value": 23, "unit": "%"}, {"measurement": "inhibition in vivo at 200 mg/kg", "setting": "[3]; read-out: % inhibition of carragenin edema, 200 mg/kg i.p., borate buffer pH 7, 1/2 h", "value": 14, "unit": "%"}, {"measurement": "% of animals for which the effect is ≥ 25 u cm Hg/h", "setting": "[4]; 50 mg/kg i.p.", "value": 30, "unit": "%"}, {"measurement": "capillary resistance, effect observed", "setting": "[4]; 50 mg/kg i.p.", "value": "19.75 ± 10.2", "unit": "u cm Hg/h"}, {"measurement": "% of animals for which the effect is ≥ 25 u cm Hg/h", "setting": "[4]; 100 mg/kg i.p.", "value": 40, "unit": "%"}, {"measurement": "capillary resistance, effect observed", "setting": "[4]; 100 mg/kg i.p.", "value": "25.5 ± 13.2", "unit": "u cm Hg/h"}, {"measurement": "% of animals for which the effect is ≥ 25 u cm Hg/h", "setting": "[4]; 200 mg/kg i.p.", "value": 90, "unit": "%"}, {"measurement": "capillary resistance, effect observed", "setting": "[4]; 200 mg/kg i.p.", "value": "37.75 ± 12.9", "unit": "u cm Hg/h"}, {"measurement": "percentage reduction of capillary permeability", "setting": "[5]; 50 mg/kg i.p.", "value": 21, "unit": "%"}, {"measurement": "percentage reduction of capillary permeability", "setting": "[5]; 100 mg/kg i.p.", "value": 20, "unit": "%"}, {"measurement": "percentage reduction of capillary permeability", "setting": "[5]; 200 mg/kg i.p.", "value": 23, "unit": "%"}]}]}
